Measurements reported in US10307352B2, “Low oil compositions comprising a 4-substituted resorcinol and a high carbon chain ester” (Johnson & Johnson Consumer Inc., priority 2012, dated 2019).

Tested on: IL-8 cytokine release
Assay: IL-8 assay: TNFα-induced IL-8 cytokine release from topically treated epidermal equivalents (EPI 200 HCF)
Type: cell-based, human
Conditions: ester added to 4-hexyl resorcinol-containing composition; result in words
Method: An IL-8 assay was performed on the compositions of Example I to investigate the release of pro-inflammatory mediators in human epithelial cells as follows.
Epidermal equivalents (EPI 200 HCF), multilayer and differentiated epidermis consisting of normal human epidermal keratinocytes, were purchased from MatTek (Ashland, Mass.). Upon receipt, epidermal equivalents were incubated for 24 hours at 37° C. in maintenance medium without hydrocortisone. Equivalents were topically treated (2 mg/cm^2) with formulation in example 1 for 2 hours before exposure to 100 ng/mL of Tumor Necrosis Factor-α (TNFα, available from Sigma-Aldrich of St Louis, Mo.). Equivalents were incubated for 4 hours at 37° C. with maintenance medium then supernatants were analyzed for IL-8 cytokine release using commercially available kits (Upstate Biotechnology, Charlottesville, Va.). Percent Reduction in IL-8 was calculated for the compositions relative to Comparative Composition C1 (without ester): Percent Reduction=[1−(Valuesample/Valuebase)]×100 where Valuesample was the IL-8 level of the composition tested and Valuebase was the IL-8 value of Comparative Composition C1.
Additional IL-8 Assays were performed as described in Example II. Compositions (described in Table 2) containing 4-hexyl resorcinol with different esters, each present at 3% by weight, were compared with Composition 6 according to the invention containing 3% by weight pentaerythritol tetraethylhexanoate.

With octyldodecyl neopentanoate the “boost in the activity (IL-8 inhibition) of 4-hexyl resorcinol over compositions without the ester” value was “substantial boost”.

isononyl isonanoate was tested, and the “boost in the activity (IL-8 inhibition) of 4-hexyl resorcinol over compositions without the ester” value was “only a modest boost or no boost at all”.

In the case of `CCCCC(CC)C(=O)OCC(COC(=O)C(CC)CCCC)(COC(=O)C(CC)CCCC)COC(=O)C(CC)CCCC` (stereo not shown) [pentaerythritol tetraethylhexanoate], the “boost in the activity (IL-8 inhibition) of 4-hexyl resorcinol over compositions without the ester” value was “substantial boost”.

`CCCCCCC(=O)OCC(C)(C)COC(=O)CCCCCC` [neopentyl glycol diheptanoate] was tested, and the “boost in the activity (IL-8 inhibition) of 4-hexyl resorcinol over compositions without the ester” value was “only a modest boost or no boost at all”.
